Results reported in US20120214824A1, “PROTEOSTASIS REGULATORS” (priority 2010, published 2012).

Experiments:
HspA5 [1] = assay: Multigene assay (QuantiGene Plex 2.0), human HeLa cell line; format: cell-based; details: 6 hours post-compound treatment, Table 7
Protocol: (§1) This assay used the QuantiGene Plex 2.0 Reagent System from Affymetrix. This assay combines the use of bDNA (branch DNA) and xMAP magnetic capture beads from Luminex Technologies to quantitatively and simultaneously detect multiple mRNA transcripts per well. The overall procedure was performed according to the QuantiGene Plex 2.0 Reagent System instruction manual from Affymetrix.
(§2) Cells were seeded at a density of 12,000 cells/well in 96-well plates with an overnight incubation at 37° C., 5% CO2. Cells were treated with serially diluted compounds in a 7-point dose dependent manner. Cell lysis with 50% [v/v] Panomics Lysis Mixture (Lysis Mixture+10 μl/ml 25 Proteinase K) was performed 6 hours post-compound treatment. Lysed cells were heated at 50° C. to ensure appropriate lysing and the plates were then frozen at −80° C. Cell lysates, thawed at room temperature on the day of the assay, were pooled with mouse 8-gene multiplex probe sets and with 8 different sets of magnetic capture beads (Luminex Technology, Austin, Tex.) in a 100 μl/well volume. Biomek FX was used at every liquid transfer step. The eight plates containing lysate-probe-bead mixtures were incubated at 54° C.±1° C. on a shaking platform for an overnight incubation in the dark (18-20 hours). The following day the hybridization plates were compressed by transferring the hybridized lysates into a single magnetic capture plate. The plate was kept on a magnet to hold the beads and then washed with Panomics Wash Buffer 2.0 on a BioTek ELx405 select plate washer to remove any unbound sample. This step was followed by serial hybridizations and washings of the bDNA pre-amplifier (1 hour, 50° C.), bDNA amplifier (1 hour, 50° C.), label probe (1 hour, 50° C.), and streptavidin-phycoerythrin (SAPE, 30 minutes, room temperature). (Zhang, A. et al. Small interfering RNA and gene expression analysis using a multiplex branched DNA assay without RNA purification. J Biomol Screen 10, 549-56 (2005)). The plate was then washed with SAPE wash buffer to remove unbound SAPE and each well was analyzed with the Luminex FlexMap3D (Luminex, Austin, Tex.). SAPE fluorescence measured from each bead was proportional to the number of mRNA transcripts captured by the beads (Zheng, Z., Luo, Y. & McMaster, G. K. Sensitive and quantitative measurement of gene expression directly from a small amount of whole blood. Clin Chem 52, 1294-302 (2006)). Fold changes in gene expression were obtained for each gene per well by normalizing the raw data first to the DMSO control and then to a housekeeping gene (TBP-TATA binding protein or Tub1-alpha-tubulin).

GCLM [2] = assay: as above; format: cell-based; details: 6 hours post-compound treatment, Table 7
Protocol: as §1, §2

SQSM = assay: as above; format: cell-based; details: 6 hours post-compound treatment, Table 7
Protocol: as §1, §2

Hspa1a [3] = assay: as above; format: cell-based; details: 6 hours post-compound treatment, Table 7
Protocol: as §1, §2

DDIT3 [4] = assay: as above; format: cell-based; details: 6 hours post-compound treatment, Table 7
HMOX1 = assay: as above; format: cell-based; details: 6 hours post-compound treatment, Table 7
firefly luciferase = assay: Luciferase folding assay (Lucif.); format: cell-based, human; details: HeLa-luciferase cells
Description: Firefly luciferase is a commonly used bioluminescent reporter. This monomeric enzyme of 61 kDa catalyzes a two-step oxidation reaction to yield light, usually in the green to yellow region, typically 550-570 nm. The first step of this reaction is activation of the luciferyl carboxylate by ATP to yield a reactive mixed anhydride. In the second step, the activated intermediate reacts with oxygen to create a transient dioxetane that breaks down to the oxidized products, oxyluciferin and CO2. Upon mixing with substrates, firefly luciferase produces an initial burst of light that decays over about 15 seconds to a low level of sustained luminescence. This kinetic profile reflects the slow release of the enzymatic product, thus limiting catalytic turnover after the initial reaction.
This mammalian cell based assay that used firefly luciferase as a sensor was used to screen for compounds that may modulate the cellular folding environment.
HeLa luciferase cell lines: Frozen bullets containing the cells were thawed briefly at 37° C. then placed into a T-150 flask containing 30-35 ml DMEM medium+Penicillin/Strep (1% final+10% FBS (final)+Geneticin @ 200-500 ug/ml. Cell cultures were maintained at 37° C. with 5% CO2 and water in the bottom of the incubator to keep cells healthy. Upon expanding cell line, luciferase measurements were taken to make sure that activity levels were between 2000-5000 (RLU) when plated at 15K/well in a 96-well format (Bright-Glo Promega) before compound treatment.
Compound treatment of HeLa-luciferase cells: HeLa-luciferase WT cells were plated in a 96-well format at 15K/well the day prior to performing compound treatment and/or luciferase assay. […] Final volume used per well was 90 uL. Flat bottom, white polystyrene plates were used for plating the cells.
For compound treatment, stocks of compounds were made up at 10 mM concentration in DMSO. Stocks compounds were diluted by 100× fold in the same media used for culturing the cells—this leads to a 0.1 mM (or 100 uM) concentration. After diluting the compound in media, 10 uL of the 100 uM solution was placed into each well of cells (90 uL); making the final concentration of the compound 10 uM. If serial dilutions of compounds were tested, serial dilutions of compounds were first made in DMSO accordingly, and further diluted in the media, prior to adding to cells. This procedure allowed for constant final levels of DMSO concentrations, regardless of initial compound concentration.
Performing luciferase activity assay: Bright-Glo Luciferase Assay Reagent (Promega cat #: E2610, E2620, E2650) was thawed out at RT in a water bath. Alternatively, Bright-Glo Luciferase assay buffer (prior to mixing with substrate) was stored overnight at RT, prior to using.
Following compound treatment, plates were removed from 37° C. and allowed to acclimate to RT for 5-10 min. Bright-Glo reagent was added to each cell-containing well in a 1:1 ratio (e.g., 100 uL of Bright Glo for each 100 uL cells).
Plates were placed on a plate shaker for 5 min, removing any air bubbles on the surface (which may interfere with proper reads), and then read on an EnVision 2104 Multilabel reader, Emission filter Luminescence 700, barcode 212, WL 400-700 nm.
Data for representative compounds in this assay are shown under the heading “Lucif.”

BCL2 = assay: Multigene assay (QuantiGene Plex 2.0), mouse MEF cell line; format: cell-based; details: 6 hours post-compound treatment
Protocol: as §1, §2

DDIT3 [5] = assay: as above; format: cell-based; details: 6 hours post-compound treatment
Protocol: as §1, §2

HspA5 [6] = assay: as above; format: cell-based; details: 6 hours post-compound treatment
Protocol: as §1, §2

GCLM [7] = assay: as above; format: cell-based; details: 6 hours post-compound treatment
Protocol: as §1, §2

TUB1 = assay: as above; format: cell-based; details: 6 hours post-compound treatment
Protocol: as §1, §2

HMOX = assay: as above; format: cell-based; details: 6 hours post-compound treatment
Protocol: as §1, §2

HSPA1a [8] = assay: as above; format: cell-based; details: 6 hours post-compound treatment
Protocol: as §1, §2

With `CC1=C(C#N)C(c2ccccc2OC(C)C)C2=C(CC(c3ccc(Cl)cc3)CC2=O)N1` (centres unmarked) [C] the HspA5 gene induction (HspA5 [1]) was “+ (+ indicates a induction of greater than 2 fold)”, the GCLM gene induction (GCLM [2]) was “— (— Indicates less than 2 fold induction)” and the SQSM gene induction (SQSM) was “— (— Indicates less than 2 fold induction)”. For the same compound, the HSPA1a gene induction (Hspa1a [3]) was “+ (+ indicates a induction of greater than 2 fold)”, the DDIT3 gene induction (DDIT3 [4]) was “+ (+ indicates a induction of greater than 2 fold)” and the HMOX1 gene induction (HMOX1) was “— (— Indicates less than 2 fold induction)”.

For `CC1=C(C#N)C(c2ccccc2OC(C)C)C2=C(CC(c3ccccc3)CC2=O)N1` (centres unmarked) [D], the HspA5 gene induction (HspA5 [1]) was “— (— Indicates less than 2 fold induction)”, the GCLM gene induction (GCLM [2]) was “— (— Indicates less than 2 fold induction)” and the SQSM gene induction (SQSM) was “— (— Indicates less than 2 fold induction)”. The HSPA1a gene induction (Hspa1a [3]) was “+ (+ indicates a induction of greater than 2 fold)”, the DDIT3 gene induction (DDIT3 [4]) was “— (— Indicates less than 2 fold induction)” and the HMOX1 gene induction (HMOX1) was “+ (+ indicates a induction of greater than 2 fold)”.

In the case of `CCCc1n[nH]c2c1C(c1ccccc1C(F)(F)F)C(C#N)=C(N)O2` (centres unmarked) [drawing 28/(CH2)2Me/2-CF3 #2], the “Lucif (luciferase activity induction)” value (firefly luciferase; Table 3a) is reported as “+ (+ indicates a induction of greater than 2 fold)”, the BCL2 gene induction (BCL2; Table 3b) is reported as “− (− Indicates less than 2 fold induction)” and the DDIT3 gene induction (DDIT3 [5]; Table 3a) is reported as “− (− Indicates less than 2 fold induction)”. The HspA5 gene induction (HspA5 [6]; Table 3b) was “− (− Indicates less than 2 fold induction)”, the GCLM gene induction (GCLM [7]; Table 3a) was “+ (+ indicates a induction of greater than 2 fold)” and the TUB1 gene induction (TUB1; Table 3a) was “− (− Indicates less than 2 fold induction)”. The HMOX gene induction (HMOX; Table 3b) was “+ (+ indicates a induction of greater than 2 fold)” and the HSPA1a gene induction (HSPA1a [8]; Table 3b) was “− (− Indicates less than 2 fold induction)”.

For `CCCc1n[nH]c2c1C(c1cc(Br)ccc1O)C(C#N)=C(N)O2` (centres unmarked) [drawing 28/(CH2)2Me/2-OH-5-Br], the “Lucif (luciferase activity induction)” value (firefly luciferase; Table 3a) was “+ (+ indicates a induction of greater than 2 fold)”, the BCL2 gene induction (BCL2; Table 3b) was “− (− Indicates less than 2 fold induction)” and the DDIT3 gene induction (DDIT3 [5]; Table 3a) was “− (− Indicates less than 2 fold induction)”. For the same compound, the HspA5 gene induction (HspA5 [6]; Table 3b) was “− (− Indicates less than 2 fold induction)”, the GCLM gene induction (GCLM [7]; Table 3a) was “+ (+ indicates a induction of greater than 2 fold)” and the TUB1 gene induction (TUB1; Table 3a) was “− (− Indicates less than 2 fold induction)”. For the same compound, the HMOX gene induction (HMOX; Table 3b) was “+ (+ indicates a induction of greater than 2 fold)” and the HSPA1a gene induction (HSPA1a [8]; Table 3b) was “− (− Indicates less than 2 fold induction)”.

In the case of `CCCc1n[nH]c2c1C(c1ccccc1Br)C(C#N)=C(N)O2` (centres unmarked) [drawing 28/(CH2)2Me/2-Br], the “Lucif (luciferase activity induction)” value (firefly luciferase; Table 3a) is reported as “+ (+ indicates a induction of greater than 2 fold)”, the BCL2 gene induction (BCL2; Table 3b) is reported as “− (− Indicates less than 2 fold induction)” and the DDIT3 gene induction (DDIT3 [5]; Table 3a) is reported as “− (− Indicates less than 2 fold induction)”. For the same compound, the HspA5 gene induction (HspA5 [6]; Table 3b) was “− (− Indicates less than 2 fold induction)”, the GCLM gene induction (GCLM [7]; Table 3a) was “+ (+ indicates a induction of greater than 2 fold)” and the TUB1 gene induction (TUB1; Table 3a) was “− (− Indicates less than 2 fold induction)”. The HMOX gene induction (HMOX; Table 3b) was “+ (+ indicates a induction of greater than 2 fold)” and the HSPA1a gene induction (HSPA1a [8]; Table 3b) was “− (− Indicates less than 2 fold induction)”.

`CC(C)Oc1ccccc1C1C(C#N)=C(N)NC2=C1C(=O)CC(c1ccccc1)C2` (centres unmarked) [drawing 27/NH2/CN/o-OCHMe2/H] was tested, and the “Lucif (luciferase activity induction)” value (firefly luciferase; Table 2a) was “+ (+ indicates a induction of greater than 2 fold)”, the BCL2 gene induction (BCL2; Table 2b) was “− (− Indicates less than 2 fold induction)” and the DDIT3 gene induction (DDIT3 [5]; Table 2a) was “+ (+ indicates a induction of greater than 2 fold)”. For the same compound, the HspA5 gene induction (HspA5 [6]; Table 2b) was “− (− Indicates less than 2 fold induction)”, the GCLM gene induction (GCLM [7]; Table 2a) was “− (− Indicates less than 2 fold induction)” and the TUB1 gene induction (TUB1; Table 2a) was “− (− Indicates less than 2 fold induction)”. For the same compound, the HMOX gene induction (HMOX; Table 2b) was “+ (+ indicates a induction of greater than 2 fold)” and the HSPA1a gene induction (HSPA1a [8]; Table 2b) was “+ (+ indicates a induction of greater than 2 fold)”.
